Source: article PMC9147192, “Small Molecule Arranged Thermal Proximity Coaggregation (smarTPCA)—A Novel Approach to Characterize Protein–Protein Interactions in Living Cells by Similar Isothermal Dose–Responses” (International Journal of Molecular Sciences, 2022)

Key:
MAPK14 = MAPK14 (Homo sapiens, UniProt Q16539); experiment: TPP-TR in living HL-60 cells; format: cell-based; conditions: 20 μM, single set (no replicates)
Experimental: (§1) HL-60 cells (ATCC No. CCL-240) were expanded to about […] in 80 mL cell culture medium (RPMI-1640 supplemented with 10% (v/v) FBS, 1% (v/v) penicillin-streptomycin and 1% (v/v) L-glutamine solution) and divided into four aliquots (20 mL each, 25 million cells per flask). […] The same volume of DMSO was added to the remaining aliquot serving as the vehicle (DMSO) control. After incubation (1 h, 37 °C, 5% CO2, in cell culture CO2 incubator), the cell suspensions were transferred into 50 mL conical tubes, cell number and viability were determined, and after centrifugation (300 relative centrifugal force (rcf), 3 min, room temperature (r.t.)), the supernatants were completely removed and discarded. The cells were washed using 20 mL Dulbecco’s phosphate-buffered saline (PBS), respectively, by resuspension and centrifugation (300 rcf, 3 min, r.t.). After the complete removal of the supernatants, the cells were transferred into pre-weighed 2 mL Eppendorf tubes using 0.5 mL PBS (r.t.), respectively, for resuspending. After centrifugation (300 rcf, 3 min, r.t.) and removing as much as possible of the supernatants, the cell wet weights were determined.
(§2) The suspensions were shortly centrifuged (1 s or less) using a benchtop centrifuge that was equipped with an inset for PCR tubes to release trapped air and to achieve an even liquid level without pelleting the cells. The 100 µL cell suspensions were then temperature treated by a 7 min pre-incubation at r.t., a 3 min incubation at the following different temperatures in the PCR cycler (DNA Engine Tetrad 2, lid temperature 70 °C, gradient block 1: 36–55 °C, gradient block 2: 48–67 °C), and a 3 min post-incubation at r.t. in a metal heating block for uniform heat dissipation.
(§3) The cells were lysed by four freeze/thaw cycles consisting of thawing the samples (in a heat block set to 25 °C and shaking at 1250 rpm) accompanied by mixing them several times by inversion and then shock freezing them again in liquid nitrogen. The resulting lysates were kept cold (on ice or 4 °C) from then on. After centrifugation (20,000 rcf, 30 min, 4 °C) to pellet the cell debris together with precipitated and aggregated proteins, the supernatants were recovered and, after determining the total protein concentration (Pierce 660 nm Protein Assay, BSA as standard), the resulting cell extracts containing the fraction of soluble, non-denatured proteins were shock frozen in liquid nitrogen and stored at −80 °C.
(§4) For each sample set comprising ten temperature range samples, the same volume of the cell extracts containing the fraction of soluble, non-denatured proteins was used for further analysis. Volume calculation for 30 µg total protein was performed as described for SDS-PAGE and immunoblotting. The calculated volume was respectively transferred into 0.5 mL LoBind Eppendorf tubes and evaporated to dryness using vacuum centrifugation (SpeedVac concentrator, Eppendorf, Hamburg, Germany). The dried proteins were each reconstituted in 10 µL of SDS sample buffer (containing DTT) and incubated for 30 min at 50 °C with shaking (700 rpm). 1.111 µL 1 M iodoacetamide (IAA) was added to each sample (final 100 mM IAA), then the samples were mixed and incubated for 30 min at r.t. in the dark. Sample quality was controlled by SDS-PAGE/silver staining using 0.926 µL of each sample (2.5 µg on average for the two lowest temperature samples; 26-well 4–12% Bis-Tris polyacrylamide gels, Novex NuPAGE, Thermo Scientific; 15 min at 50 V, about 1.5 h at 200 V using the recommended MOPS running buffer).

MAPK3 = target: T1, MAPK3 (Homo sapiens, UniProt P27361); experiment: TPP-TR in living HL-60 cells; format: cell-based; conditions: 20 μM, single set (no replicates)
T1 construct: endogenous in cells; host or cells: HL-60 (ATCC CCL-240)
Experimental: as §1, §2, §3, §4

MAPKAPK2p = experiment: CETSA in living HL-60 cells, immunoblot; format: cell-based, Homo sapiens
Experimental: First, we conducted CETSA experiments according to Jafari et al.. […] Subsequent SDS-PAGE and immunoblotting were performed according to optimized conditions allowing for parallel detection of MAPK14, MAPKAPK2, MAPKAPK3, and GSK-3α (Supplementary Figure S1).
as §1, §2
The cells were lysed by four freeze/thaw cycles consisting of thawing the samples (in a heat block set to 25 °C and shaking at 1250 rpm) accompanied by mixing them several times by inversion and then shock freezing them again in liquid nitrogen. […]
For each sample set comprising either ten temperature range samples or ten compound concentration range samples, the same volume of the cell extracts containing the fraction of soluble, non-denatured proteins was used for further analysis. This volume was determined using the two lowest temperature samples (36.5 and 41.2 °C) per temperature range sample set so that they contained an average of 5 µg total protein (e.g., 2.78 µL for all temperature range samples of a sample set whose two lowest temperature samples contain an average of 1.8 mg/mL protein). […]

[1] = living HL-60 cells, 20 µM inhibitor

Chain of MAPK14 (Q16539 whole entry): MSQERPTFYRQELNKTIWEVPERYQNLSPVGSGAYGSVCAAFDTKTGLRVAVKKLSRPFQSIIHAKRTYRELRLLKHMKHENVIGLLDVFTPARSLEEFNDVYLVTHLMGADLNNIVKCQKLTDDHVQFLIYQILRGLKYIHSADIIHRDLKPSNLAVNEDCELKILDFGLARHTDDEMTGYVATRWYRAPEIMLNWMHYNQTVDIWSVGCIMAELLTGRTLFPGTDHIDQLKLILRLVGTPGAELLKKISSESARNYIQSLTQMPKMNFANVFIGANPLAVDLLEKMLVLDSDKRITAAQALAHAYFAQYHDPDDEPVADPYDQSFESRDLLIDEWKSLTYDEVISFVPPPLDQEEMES
T1 sequence (P27361 whole entry): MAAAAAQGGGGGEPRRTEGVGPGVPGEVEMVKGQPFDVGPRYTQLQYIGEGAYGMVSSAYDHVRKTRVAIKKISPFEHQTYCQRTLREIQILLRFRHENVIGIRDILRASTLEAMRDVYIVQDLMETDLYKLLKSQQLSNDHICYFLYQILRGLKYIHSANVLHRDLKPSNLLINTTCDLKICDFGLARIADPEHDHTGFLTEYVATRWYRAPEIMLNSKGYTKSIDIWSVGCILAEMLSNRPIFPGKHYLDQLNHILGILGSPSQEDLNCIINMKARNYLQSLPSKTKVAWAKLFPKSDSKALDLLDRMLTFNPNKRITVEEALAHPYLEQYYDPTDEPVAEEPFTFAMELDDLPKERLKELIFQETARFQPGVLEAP

| SMILES | thermal stabilization in melting curves (MAPK14) (MAPK14) | thermal stabilization in melting curves (MAPK3) (MAPK3) | Tm (MAPKAPK2p; MAPKAPK2p, living cells) [°C] | ΔTm to DMSO (MAPKAPK2p; MAPKAPK2p, living cells) [°C] | Tm (MAPKAPK2p) (MAPKAPK2p; [1]) [°C] | ΔTm to DMSO (MAPKAPK2p) (MAPKAPK2p; [1]) [°C] |
| --- | --- | --- | --- | --- | --- | --- |
| Cn1c(NC[C@@H](N)Cc2ccccc2)nc(-c2ccncc2)c(-c2ccc3ccccc3c2)c1=O [AMG-548] | thermal stabilizations |  |  |  |  |  |
| Cc1cnc(Nc2ccc(F)cc2Cl)nc1-c1c[nH]c(C(=O)N[C@H](CO)c2cccc(Cl)c2)c1 [ERK 11e] |  | thermal stabilization | 47.18 | -1.07 | 47.18 | −1.07 |
